A short description of test [1]: Evaluated for the therapeutic index value of the compound. The class given is functional.
The test system of test [2] is H9. In words: Tested for anti-HIV activity against acutely infected H9 cells, activity expressed as EC50. The format is functional, cell-based. The settings on record: Homo sapiens.
Test [3] deals with H9. In words: Concentration required for […] against acutely infected H9 cells. The class given is functional, cell-based. The settings on record: Homo sapiens.

Values after ≈ are worked out from the molar mass of the structure shown.

With `CC(C)(O)/C=C/C(=O)[C@](C)(O)C1[C@H](O)C(=O)[C@@]2(C)[C@@H]3CC=C4[C@@H](C[C@H](O)[C@@H](O)C4(C)C)[C@]3(C)C(=O)C[C@]12C` (some centres not stated), the Therapeutic index in test [1] came out at 17. The midpoint of the response with H9 [2], the EC50, lay at 0.3 µg/mL (≈ 0.563 µM). For the same compound, the midpoint of inhibition with H9 [3], the IC50, lay at 5.1 µg/mL (≈ 9.57 µM).
Compound `CC(C)(O)CCC(=O)[C@](C)(O)C1[C@H](O)C(=O)[C@@]2(C)[C@@H]3CC=C4[C@@H](C[C@H](O)[C@@H](O)C4(C)C)[C@]3(C)C(=O)C[C@]12C` (some centres not stated) registered a Therapeutic index in test [1] of 15.2. The same compound returned an EC50 in the test on H9 [2] of 2.5 µg/mL (≈ 4.68 µM). The IC50 with H9 [3] came out at 38 µg/mL (≈ 71.1 µM).
On the same counts, the results for `CC(C)(O)CCC(=O)[C@](C)(O)C1[C@H](O)C[C@@]2(C)[C@@H]3CC=C4[C@@H](C[C@H](O)[C@@H](O)C4(C)C)[C@]3(C)C(=O)C[C@]12C` (some centres not stated) are 11.6, 0.8 µg/mL (≈ 1.54 µM) and 9.3 µg/mL (≈ 17.9 µM).
Turning to `CC(C)(O)/C=C/C(=O)[C@](C)(O)[C@H]1[C@H](O)C[C@@]2(C)[C@@H]3CC=C4[C@@H](C[C@H](O)[C@@H](O)C4(C)C)[C@]3(C)C(=O)C[C@]12C` [CUCURBITACIN F], the Therapeutic index in test [1] was 2.7. It took 0.06 µg/mL (≈ 0.116 µM) to reach a half-maximal effect in the test with H9 [2] (EC50). Moreover, the 50% inhibitory concentration (IC50) in the test on H9 [3] turned out to be 0.16 µg/mL (≈ 0.308 µM).

For orientation: EC50 means the concentration giving half of the maximal effect. Low values mean a more potent agent, high ones a less potent agent. One may read the IC50 as the concentration that inhibits the measured activity by half.

The values are drawn from ChEMBL document CHEMBL1127897, “Cucurbitacin F derivatives, anti-HIV principles from cowania mexicana” (Bioorg Med Chem Lett, 1994).
